Assays:
METTL3-14 = METTL3-14 (Homo sapiens, UniProt Q86U44); test: biochemical; set-up: with the full-length complex, the recombinant complex construct pFastBacDual-StrepII-GFP-TEV-METTL3-His-TEV-METTL14 was expressed; StrepII (N); GFP (N); TEV site (N); made in house; host or cells: baculovirus/Sf9 insect cells; conditions: inhibition of catalytic activity of METTL3-14, binary FRET assay
Excerpt: For determining the half maximal inhibitory concentration (IC50) with the full-length complex, the recombinant complex construct pFastBacDual-StrepII-GFP-TEV-METTL3-His-TEV-METTL14 was expressed using the baculovirus/Sf9 insect cell expression system and purified as described previously.[21]
The inhibitory potencies of the PROTACs for METTL3 were quantified by a homogeneous time-resolved fluorescence (HTRF)-based enzyme assay as previously described.[40]

[1] = molecular target: T1, ternary complex CRBN/PROTAC/METTL3–14 (Homo sapiens, UniProt Q86U44+Q96SW2); test: FRET-based ternary complex formation assay (TCFA); format: binding; conditions: for TCFA amplitude (mean ± SEM): Hook curve amplitude, fraction of the maximum of compound 16; for ECmax (nM) ± SD: PROTAC concentration at the maximum of the signal in the TCFA; for ECmax: TCFA, peak of the Hook curve
T1 construct: methyltransferase domains (MTD) of METTL3 (residues 354–580); His6 (N, cleaved yes); made in house; host or cells: METTL3-MTD/METTL14-MTD: baculovirus/Sf9; CRBN-TBD: E. coli Rosetta (DE3), co-expressed with BirA
T1 sequence (Q86U44 354-580): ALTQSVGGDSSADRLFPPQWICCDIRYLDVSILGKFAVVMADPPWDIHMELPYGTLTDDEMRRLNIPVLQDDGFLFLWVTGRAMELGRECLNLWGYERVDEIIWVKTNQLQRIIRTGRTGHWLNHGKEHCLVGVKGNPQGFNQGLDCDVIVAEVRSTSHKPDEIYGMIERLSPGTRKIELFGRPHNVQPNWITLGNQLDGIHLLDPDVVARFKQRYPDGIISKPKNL
T1 sequence (Q9HCE5 107-395 partner limits assumed): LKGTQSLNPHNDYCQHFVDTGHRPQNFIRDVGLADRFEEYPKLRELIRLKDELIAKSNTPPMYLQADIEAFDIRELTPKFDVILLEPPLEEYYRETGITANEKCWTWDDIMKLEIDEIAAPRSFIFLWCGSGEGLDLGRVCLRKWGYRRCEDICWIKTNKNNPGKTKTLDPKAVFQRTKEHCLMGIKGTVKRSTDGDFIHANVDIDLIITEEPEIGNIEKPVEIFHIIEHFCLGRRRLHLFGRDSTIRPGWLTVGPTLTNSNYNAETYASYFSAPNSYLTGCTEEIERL
T1 sequence (Q96SW2 318-442): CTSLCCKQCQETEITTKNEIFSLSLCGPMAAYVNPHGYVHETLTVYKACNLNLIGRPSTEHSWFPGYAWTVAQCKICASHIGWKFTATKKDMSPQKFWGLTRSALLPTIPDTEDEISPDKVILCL
Method: For protein expression, suspension cultures of Sf9 cells in […] medium (Thermo Fisher) were infected at a density of 2 × 10^6 mL^–1. […] The complex was further purified by size exclusion chromatography using a Superdex 200 Increase 10/300 GL column (Cytiva) in 20 mM Tris-Cl, pH 8.0, and 200 mM KCl. The complex was aliquoted and flash-frozen in liquid nitrogen and stored at −80 °C until further use.
Ternary complex formation between the PROTACs, METTL3, and CRBN was quantified by a homogeneous time-resolved fluorescence (HTRF)-based enzyme assay. […] Curves of titrations with the PROTACs were plotted in GraphPad Prism 9.5.1 and fitted with a Gaussian function, if appropriate. […] CRBN^TBD-Avi(biotin) was used at a final concentration of 10 nM. […] Anti-GST Eu^3+-labeled antibody (Cisbio, 61GSTKLB) was used at a final concentration of 0.8 nM. The final reaction volume was 20 μL in 50 mM HEPES (pH 7.5), 150 mM NaCl, 0.1% BSA, 100 mM KF. […] The ratio of the emissions [drawing 1] was considered for further analysis. […] The concentrations resulting in the maximum signal (ECmax) and the amplitudes of the Hook curves were determined from the parameters of the Gaussian fit (if appropriate) or as the coordinates of the data-point with the highest TR-FRET signal.
For the ternary complex formation assay (TCFA), one of the protein partners must have a GST-tag and the other a biotin-tag.

METTL3 = molecular target: T2, METTL3 (Homo sapiens, UniProt Q86U44); test: Cellular degradation assay (Western blot), METTL3 in MOLM-13; format: cell-based; conditions: MOLM-13, 24 h, 2 μM compound
T2 construct: METTL3–14 degradation up to 70% of the endogenous level; endogenous in cells; host or cells: MOLM-13, PC3, DU145
T2 sequence (Q86U44 2-580 limits assumed): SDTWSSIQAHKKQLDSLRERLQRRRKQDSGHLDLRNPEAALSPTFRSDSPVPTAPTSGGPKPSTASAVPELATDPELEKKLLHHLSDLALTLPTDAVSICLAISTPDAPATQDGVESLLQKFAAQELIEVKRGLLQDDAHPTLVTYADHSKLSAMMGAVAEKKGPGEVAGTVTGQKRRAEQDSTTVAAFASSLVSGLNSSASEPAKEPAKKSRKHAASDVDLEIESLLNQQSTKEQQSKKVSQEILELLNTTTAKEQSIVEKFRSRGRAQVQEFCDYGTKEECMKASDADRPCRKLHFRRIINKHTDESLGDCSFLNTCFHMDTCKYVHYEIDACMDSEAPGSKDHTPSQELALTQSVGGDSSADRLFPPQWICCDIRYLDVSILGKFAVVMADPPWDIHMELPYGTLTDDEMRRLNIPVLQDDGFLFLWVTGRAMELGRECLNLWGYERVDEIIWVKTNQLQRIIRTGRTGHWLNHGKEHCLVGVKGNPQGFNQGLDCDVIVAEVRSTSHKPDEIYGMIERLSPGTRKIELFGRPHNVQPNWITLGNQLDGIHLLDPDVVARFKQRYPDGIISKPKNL
T2 sequence (Q9HCE5 whole entry partner): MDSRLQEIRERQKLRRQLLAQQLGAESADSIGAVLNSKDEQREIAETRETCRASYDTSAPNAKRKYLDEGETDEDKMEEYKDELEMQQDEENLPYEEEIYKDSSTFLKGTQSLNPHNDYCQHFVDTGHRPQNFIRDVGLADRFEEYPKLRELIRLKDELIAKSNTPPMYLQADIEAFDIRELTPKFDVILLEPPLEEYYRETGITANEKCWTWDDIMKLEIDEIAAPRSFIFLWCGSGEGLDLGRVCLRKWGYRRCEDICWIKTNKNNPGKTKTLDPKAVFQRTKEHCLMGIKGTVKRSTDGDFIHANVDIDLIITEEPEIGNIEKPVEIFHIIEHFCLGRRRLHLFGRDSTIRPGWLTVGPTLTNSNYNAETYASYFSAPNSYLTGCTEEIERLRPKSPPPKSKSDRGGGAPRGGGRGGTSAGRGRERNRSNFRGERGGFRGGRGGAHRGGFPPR
Method: (§1) MOLM-13, NOMO-1, THP-1, Kasumi-1, PC3, and DU145 cell lines were obtained from DSMZ-German Collection of Microorganisms and Cell Cultures GmbH. Cells were cultured in RPMI 1640 medium (11875093, Thermo Fisher Scientific) containing 10% FBS (16140071, Thermo Fisher Scientific) and 1% penicillin-streptomycin (15140122, Thermo Fisher Scientific) in 5% CO2 at 37 °C in a humidified incubator, with maintained cell densities at 0.5–1 × 10^6 cells/mL. All cell lines were tested negative for mycoplasma contamination (PCR-based assay by Microsynth, Switzerland).
(§2) METTL3 (and METTL14) protein degradation was monitored by Western blot. Cells were treated with the indicated concentration of PROTACs or DMSO control (0.1% (v/v)) for 24h, 37 °C with 5% CO2. Samples were then collected and lysed with RIPA buffer with added protease inhibitors (11697498001, Roche). After SDS-PAGE, proteins were transferred to a nitrocellulose membrane, blocked (with 5% milk, 0.5% BSA in TBST buffer), and incubated overnight with primary antibodies. The following antibodies were used: GAPDH (no. 2118, Cell Signaling, 1:4000), β-actin (ab8226, Abcam, 1:2000), METTL3 (ab195352, Abcam, 1:1000), and METTL14 (ab220031, Abcam, 1:1000). Membranes were scanned using an LI-COR Odyssey DLx imager after incubation with appropriate secondary antibodies (antimouse IgG IRDye 680RD (926–68072, LI-COR, 1:10000) and goat anti-Rabbit IgG IRDye 800CW (926–32211, LI-COR, 1:10000)). Densitometry was performed in Image Studio Lite software and analyzed in GraphPad Prism 9.

METTL14 = test: Cellular degradation assay (Western blot), METTL14 in MOLM-13; format: cell-based, human; conditions: MOLM-13, 24 h, 2 μM compound
Method: as §1, §2

[2] = Cell viability assay (CellTiter-Glo) on MOLM-13; format: cell-based; conditions: human, MOLM-13 cells, average of two biological replicates; for viability at 72 h, […]: 2.5 µM
Method: as §1
Cell viability was determined using a CellTiter-Glo luminescent cell viability assay (Promega) based on the detection of ATP according to the manufacturer’s instructions. 100 μL of the reagent was added to each well and incubated for 10 min at room temperature. […] Background luminescence value was obtained from wells containing the CellTiter-Glo reagent and medium without cells. The resulting data was analyzed in GraphPad Prism 9.

Sequence of METTL3-14 (Q86U44 whole entry): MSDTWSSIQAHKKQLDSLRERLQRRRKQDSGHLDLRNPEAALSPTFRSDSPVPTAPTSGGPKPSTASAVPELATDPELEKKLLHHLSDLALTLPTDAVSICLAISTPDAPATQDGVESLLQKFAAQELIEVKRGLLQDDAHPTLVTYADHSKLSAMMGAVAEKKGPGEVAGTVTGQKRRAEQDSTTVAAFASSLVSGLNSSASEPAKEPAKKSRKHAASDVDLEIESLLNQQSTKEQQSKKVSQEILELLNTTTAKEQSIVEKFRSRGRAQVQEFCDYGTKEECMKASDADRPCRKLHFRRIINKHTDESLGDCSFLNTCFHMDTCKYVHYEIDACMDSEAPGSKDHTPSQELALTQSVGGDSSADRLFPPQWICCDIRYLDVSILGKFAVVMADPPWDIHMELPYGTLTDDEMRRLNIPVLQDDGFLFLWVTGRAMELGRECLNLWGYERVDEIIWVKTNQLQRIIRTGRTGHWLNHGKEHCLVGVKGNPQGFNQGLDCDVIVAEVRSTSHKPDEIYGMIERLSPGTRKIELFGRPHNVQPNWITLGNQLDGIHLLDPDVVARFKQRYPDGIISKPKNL
Sequence of METTL3-14 (Q9HCE5 whole entry, further chain): as the sequence (Q9HCE5 whole entry partner) above

SMILES | IC50 (METTL3-14) | TCFA amplitude (mean ± SEM) [1] | ECmax (nM) ± SD [1] | MOLM-13 West. blot at 24h 2 μM comp conc. Degradation (%) of METTL3 (METTL3) | MOLM-13 West. blot at 24h 2 μM comp conc. Degradation (%) of METTL14 (METTL14) | ECmax [1] | viability at 72 h, 10 µM [2] | viability at 72 h, 0.6 µM [2] | viability at 72 h, 1.25 µM [2] | viability at 72 h, […] [2] | viability at 72 h, 5 µM [2]
CC1(C)CCN(Cc2ccc(N3CC(=O)NC4(CCN(c5cc(NCCCNC(=O)CCCCCCCCCCn6cc(CNc7cccc8c7C(=O)N(C7CCC(=O)NC7=O)C8=O)nn6)ncn5)CC4)C3)cc2)CC1 (centres unmarked) [Compound 8] | 480 ± 100 nM | 0.6 | 2200 (n = 1) nM | / (Degradation <10% or stabilization) | / (Degradation <10% or stabilization) | – | – | – | – | – | –
CC1(C)CCN(Cc2ccc(N3CC(=O)NC4(CCN(c5cc(NCCCNC(=O)CCCCCCCCn6cc(CNc7cccc8c7C(=O)N(C7CCC(=O)NC7=O)C8=O)nn6)ncn5)CC4)C3)cc2)CC1 (centres unmarked) [Compound 9] | 1800 ± 290 nM | 0.4 | 6700 (n = 1) nM | / (Degradation <10% or stabilization) | / (Degradation <10% or stabilization) | – | – | – | – | – | –
CC1(C)CCN(Cc2cc(F)c(N3CC(=O)NC4(CCN(c5cc(NCCCNC(=O)CCCCCCCCNc6cccc7c6CN(C6CCC(=O)NC6=O)C7=O)ncn5)CC4)C3)cc2F)CC1 (centres unmarked) [Compound 10] | 66 ± 10 nM | 1.0 ± 0.0 | 200 ± 110 nM | 18 ± 6% | 18 ± 16% | below 1 μM | 86.6% | – | – | – | –
CC1(C)CCN(Cc2cc(F)c(N3CC(=O)NC4(CCN(c5cc(NCCCNC(=O)CCCCCCCCCCNc6cccc7c6CN(C6CCC(=O)NC6=O)C7=O)ncn5)CC4)C3)cc2F)CC1 (centres unmarked) [Compound 11] | 300 ± 40 nM | 0.3 ± 0.0 | 910 ± 40 nM | / (Degradation <10% or stabilization) | 17 ± 22% | below 1 μM | 84.6% | – | – | – | –
CC1(C)CCN(Cc2cc(F)c(N3CC(=O)NC4(CCN(c5cc(NCCCNC(=O)CCCCCCCCn6cc(CNc7cccc8c7C(=O)N(C7CCC(=O)NC7=O)C8=O)nn6)ncn5)CC4)C3)cc2F)CC1 (centres unmarked) [Compound 12] | 67 ± 21 nM | 0.7 ± 0.1 | 320 ± 160 nM | / (Degradation <10% or stabilization) | 11 ± 27% | below 1 μM | 94.3% | – | – | – | –
CC1(C)CCN(Cc2cc(F)c(N3CC(=O)NC4(CCN(c5cc(NCCCNC(=O)CCCCCCCCCCn6cc(CNc7cccc8c7C(=O)N(C7CCC(=O)NC7=O)C8=O)nn6)ncn5)CC4)C3)cc2F)CC1 (centres unmarked) [Compound 13] | 220 ± 40 nM | 0.8 ± 0.0 | 1800 ± 250 nM | 19 ± 20% | 19 ± 13% | – | – | – | – | – | –
CC1(C)CCN(Cc2cc(F)c(N3CC(=O)NC4(CCN(c5cc(NCc6cccc(CNC(=O)CCCCCNc7cccc8c7C(=O)N(C7CCC(=O)NC7=O)C8=O)c6)ncn5)CC4)C3)cc2F)CC1 (centres unmarked) [Compound 15] | 33 ± 4 nM | 0.8 ± 0.1 | 640 ± 30 nM | / (Degradation <10% or stabilization) | / (Degradation <10% or stabilization) | – | 84.6% | 91.2% | 94.8% | 97.2% | 89.4%
CC1(C)CCN(Cc2cc(F)c(N3CC(=O)NC4(CCN(c5cc(NCc6cccc(CNC(=O)CCCCCCCCNc7cccc8c7CN(C7CCC(=O)NC7=O)C8=O)c6)ncn5)CC4)C3)cc2F)CC1 (centres unmarked) [Compound 16] | 67 ± 11 nM | 1.0 ± 0.0 | 430 ± 180 nM | 24 ± 14% | 39 ± 13% | – | 103% | – | – | – | –
CC1(C)CCN(Cc2cc(F)c(N3CC(=O)NC4(CCN(c5cc(NCc6cccc(CNC(=O)CCCCCCCCCCNc7cccc8c7CN(C7CCC(=O)NC7=O)C8=O)c6)ncn5)CC4)C3)cc2F)CC1 (centres unmarked) [Compound 17] | 160 ± 20 nM | 1.0 ± 0.0 | 920 ± 160 nM | / (Degradation <10% or stabilization) | 13 ± 6% | – | 106% | 106% | 109% | 112% | 106%

From article PMC10900215 (JACS Au, 2024)
